# Measured values published in patent US20260347361A1, “LRRK2 INHIBITORS AND USES THEREOF” (NEURON23, INC, priority 2022, published 2026).
# Molecular target: T1, wt human LRRK2 (Homo sapiens, UniProt Q5S007)
# T1 construct: wt human LRRK2, catalytic site, catalytic site (ThermoFisher/USA); purchased ThermoFisher
# Test: TR-FRET LanthaScreen Tb Kinase Activity Assay, inhibition of LRRK2 kinase
# Type: biochemical
# Details: 2 nM wt human LRRK2, 400 nM fluorescein-ERM (LRRKtide) peptide, 38 µM ATP, 15 min pre-incubation, 120 min at room temperature
# Description: In Table 2, activity is provided as the following: “+++”=IC50 less than 50 nM; “++”=IC50 between 50 nM and 200 nM; “+”=IC50> or =200 nM.
# The compounds listed in Table 2 were tested for their inhibitory effect on LRRK2 kinase according to the following procedures.
# The protocol for basic TR-FRET LanthaScreen Tb Kinase Activity Assay inhibitor studies were as follows. LanthaScreen Kinase Activity Assays (ThermoFisher/USA) to evaluate inhibitors were performed by addition of 100 nl of test compound in corresponding DMSO dilutions/5 μl of kinase/fluorescein-ERM(LRRKtide) peptide mixture, Compound & kinase were pre-incubated for 15 minutes, then 5 μl of ATP into 384 well small volume plates. After incubation for 120 minutes at room temperature, the detection reagents containing Tb-anti-pLRRKtide antibody were added to monitor phosphorylation level of peptide. Then, after 60 min minutes incubation at room temperature plates were read in Envision. Data analysis of emission ratios was according to LanthaScreen Tb Kinase Activity Assay protocol.
# Kinase and assay components were adjusted to final concentrations according to the kit protocol. For LRRK2: 2 nM wt human LRRK2, catalytic site, catalytic site (ThermoFisher/USA), 400 nM peptide, 38 µM ATP in 1× Kinase Buffer A.
# Basic protocol for TR-FRET LanthaScreen Tb Kinase Activity Assay inhibitor studies involved two steps:
# Enzymatic step: Addition of […] of test compound in corresponding DMSO dilutions, 5 μL of kinase/substrate mixture, 5 μL of ATP into 384 well small volume plates. Incubation for 120 minutes at room temperature.
# Detection step: Addition of 10 μL EDTA & antibody, read plate after 60 minutes. Data analysis of emission ratios according to KinEASE assay protocol.
# Kinase and assay components were adjusted to final concentrations according to the kit protocol.
# T1 sequence (Q5S007 970-2527 limits assumed): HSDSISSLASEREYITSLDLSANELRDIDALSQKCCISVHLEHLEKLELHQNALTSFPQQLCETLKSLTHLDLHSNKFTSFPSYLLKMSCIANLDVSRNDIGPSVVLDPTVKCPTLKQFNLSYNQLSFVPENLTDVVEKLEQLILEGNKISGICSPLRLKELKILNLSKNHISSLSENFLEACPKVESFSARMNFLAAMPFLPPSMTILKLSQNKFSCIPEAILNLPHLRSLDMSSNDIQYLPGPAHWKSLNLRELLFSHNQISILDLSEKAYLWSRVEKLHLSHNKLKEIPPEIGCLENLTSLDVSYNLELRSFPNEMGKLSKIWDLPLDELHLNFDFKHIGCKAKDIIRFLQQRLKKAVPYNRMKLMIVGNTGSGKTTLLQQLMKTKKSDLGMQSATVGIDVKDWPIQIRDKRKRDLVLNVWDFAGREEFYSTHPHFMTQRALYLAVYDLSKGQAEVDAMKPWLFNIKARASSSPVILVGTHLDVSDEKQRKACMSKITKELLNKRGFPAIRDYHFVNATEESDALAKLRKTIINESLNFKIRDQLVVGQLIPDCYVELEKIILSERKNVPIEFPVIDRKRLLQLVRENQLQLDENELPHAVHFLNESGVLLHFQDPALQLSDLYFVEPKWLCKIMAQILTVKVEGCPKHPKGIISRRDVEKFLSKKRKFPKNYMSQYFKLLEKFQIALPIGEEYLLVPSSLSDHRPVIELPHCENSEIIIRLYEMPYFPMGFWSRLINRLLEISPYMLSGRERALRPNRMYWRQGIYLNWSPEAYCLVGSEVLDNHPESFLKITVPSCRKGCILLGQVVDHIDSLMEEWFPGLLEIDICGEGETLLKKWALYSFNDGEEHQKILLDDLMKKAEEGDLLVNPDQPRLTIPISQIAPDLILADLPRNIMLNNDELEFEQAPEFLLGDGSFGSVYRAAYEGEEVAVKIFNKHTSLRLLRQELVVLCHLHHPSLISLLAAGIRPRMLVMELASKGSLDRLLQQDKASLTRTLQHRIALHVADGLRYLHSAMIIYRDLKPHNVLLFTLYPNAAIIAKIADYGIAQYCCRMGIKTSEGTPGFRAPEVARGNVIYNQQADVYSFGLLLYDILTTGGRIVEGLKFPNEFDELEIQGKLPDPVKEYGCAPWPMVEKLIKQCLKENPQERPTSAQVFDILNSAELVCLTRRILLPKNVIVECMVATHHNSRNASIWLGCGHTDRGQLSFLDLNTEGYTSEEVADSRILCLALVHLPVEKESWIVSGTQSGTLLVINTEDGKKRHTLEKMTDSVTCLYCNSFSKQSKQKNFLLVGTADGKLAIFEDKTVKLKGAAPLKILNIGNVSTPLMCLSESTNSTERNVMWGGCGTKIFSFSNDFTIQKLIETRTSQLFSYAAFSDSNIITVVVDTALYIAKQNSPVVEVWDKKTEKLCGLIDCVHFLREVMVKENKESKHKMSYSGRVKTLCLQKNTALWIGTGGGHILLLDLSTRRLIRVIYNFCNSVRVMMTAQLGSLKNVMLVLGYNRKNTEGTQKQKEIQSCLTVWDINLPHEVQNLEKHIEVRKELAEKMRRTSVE
row,Structure (SMILES),IC50
1,"Fc1cccc(F)c1C1=Nc2c(Cl)cnn2-c2cc(N3CC4CC3CO4)ccc2N1 (racemic) [5-(3-chloro-5-(2,6-difluorophenyl)-6H-benzo[f]pyrazolo[1,5-a][1,3,5]triazepin-9-yl)-2-oxa-5-azabicyclo[2.2.1]heptane]",< 50 nM
2,Fc1cccc(F)c1C1=Nc2c(Cl)cnn2-c2cc(-c3cn[nH]c3)ccc2N1,< 50 nM
3,"Fc1cccc(F)c1C1=Nc2c(Cl)cnn2-c2cc(N3CCCC3)ccc2N1 [3-chloro-5-(2,6-difluorophenyl)-9-(pyrrolidin-1-yl)-6H-benzo[f]pyrazolo[1,5-a][1,3,5]triazepine]",< 50 nM
4,"O=C(NCC1CC1)c1ccc2c(c1)-n1ncc(Cl)c1N=C(c1c(F)cccc1F)N2 [3-chloro-N-(cyclopropylmethyl)-5-(2,6-difluorophenyl)-6H-pyrazolo[1,5-a][1,3,5]benzotriazepine-9-carboxamide]",< 50 nM
5,"O=C(NCCF)c1cnc2c(c1)-n1ncc(Cl)c1N=C(c1c(F)cccc1F)N2 [5-chloro-8-(2,6-difluorophenyl)-N-(2-fluoroethyl)-2,3,7,9,11-pentazatricyclo[8.4.0.02,6]tetradeca-1(10),3,5,7,11,13-hexaene-13-carboxamide]",< 50 nM
6,"Fc1cccc(F)c1C1=Nc2ccnn2-c2cc(N3CCOCC3)ccc2N1 [4-[5-(2,6-difluorophenyl)-6H-pyrazolo[1,5-a][1,3,5]benzotriazepin-9-yl]morpholine]",< 50 nM
7,"CC(C)(C)NC(=O)c1ccc2c(c1)-n1ncc(Cl)c1N=C(c1c(F)cccc1F)N2 [N-(tert-butyl)-3-chloro-5-(2,6-difluorophenyl)-6H-benzo[f]pyrazolo[1,5-a][1,3,5]triazepine-9-carboxamide]",< 50 nM
8,"Fc1cccc(F)c1C1=Nc2c(Cl)cnn2-c2cc(N3C[C@H]4CC[C@@H](C3)O4)ccc2N1 [(1R,5S)-3-[3-chloro-5-(2,6-difluorophenyl)-6H-pyrazolo[1,5-a][1,3,5]benzotriazepin-9-yl]-8-oxa-3-azabicyclo[3.2.1]octane]",< 50 nM
9,"Fc1cccc(F)c1C1=Nc2c(Cl)cnn2-c2cc(N3CC[C@H](F)C3)ccc2N1 [3-chloro-5-(2,6-difluorophenyl)-9-[(3S)-3-fluoropyrrolidin-1-yl]-6H-pyrazolo[1,5-a][1,3,5]benzotriazepine]",< 50 nM
10,"Fc1cccc(F)c1C1=Nc2c(Cl)cnn2-c2cc(N3CCC34COC4)ccc2N1 [1-[3-chloro-5-(2,6-difluorophenyl)-6H-pyrazolo[1,5-a][1,3,5]benzotriazepin-9-yl]-6-oxa-1-azaspiro[3.3]heptane]",< 50 nM
11,"C[C@H]1CN(c2cc3c(cn2)NC(c2c(F)cccc2F)=Nc2ccnn2-3)CCO1 [(S)-4-(5-(2,6-difluorophenyl)-6H-pyrazolo[1,5-a]pyrido[3,4-f][1,3,5]triazepin-9-yl)-2-methylmorpholine]",< 50 nM
12,"CONC(=O)c1ccc2c(c1)-n1ncc(Cl)c1N=C(c1c(F)cccc1F)N2 [3-chloro-5-(2,6-difluorophenyl)-N-methoxy-6H-pyrazolo[1,5-a][1,3,5]benzotriazepine-9-carboxamide]",< 50 nM
13,"Fc1cccc(F)c1C1=Nc2c(Cl)cnn2-c2cc(N3CC[C@@H](F)C3)ccc2N1 [3-chloro-5-(2,6-difluorophenyl)-9-[(3R)-3-fluoropyrrolidin-1-yl]-6H-pyrazolo[1,5-a][1,3,5]benzotriazepine]",< 50 nM
14,"Fc1cccc(F)c1C1=Nc2c(Cl)cnn2-c2cc(N3CCNCC3)ccc2N1 [3-chloro-5-(2,6-difluorophenyl)-9-piperazin-1-yl-6H-pyrazolo[1,5-a][1,3,5]benzotriazepine]",< 50 nM

# Now from value to compound:
row,IC50,Structure (SMILES)
1,< 50 nM,"OC1CCN(c2ccc3c(c2)-n2ncc(Cl)c2N=C(c2c(F)cccc2F)N3)C1 (racemic) [1-[3-chloro-5-(2,6-difluorophenyl)-6H-pyrazolo[1,5-a][1,3,5]benzotriazepin-9-yl]pyrrolidin-3-ol]"
2,< 50 nM,Fc1cccc(F)c1C1=Nc2c(Cl)cnn2-c2cc(N3CCOCC3)cnc2N1
3,< 50 nM,"O=C(NC1CCC1)c1ccc2c(c1)-n1ncc(Cl)c1N=C(c1c(F)cccc1F)N2 [3-chloro-N-cyclobutyl-5-(2,6-difluorophenyl)-6H-pyrazolo[1,5-a][1,3,5]benzotriazepine-9-carboxamide]"
4,< 50 nM,"CC1CN(c2ccc3c(c2)-n2ncc(Cl)c2N=C(c2c(F)cccc2F)N3)CC(C)O1 (centres unmarked) [4-[3-chloro-5-(2,6-difluorophenyl)-6H-pyrazolo[1,5-a][1,3,5]benzotriazepin-9-yl]-2,6-dimethyl-morpholine]"
5,< 50 nM,"Fc1cccc(F)c1C1=Nc2c(Cl)cnn2-c2cc(N3C[C@H]4C[C@@H]3CO4)ncc2N1 [(1R,4R)-5-[5-chloro-8-(2,6-difluorophenyl)-2,3,7,9,12-pentazatricyclo[8.4.0.02,6]tetradeca-1(10),3,5,7,11,13-hexaen-13-yl]-2-oxa-5-azabicyclo[2.2.1]heptane]"
6,< 50 nM,"O=C(NCCF)c1ccc2c(c1)-n1ncc(Cl)c1N=C(c1c(F)cccc1F)N2 [3-chloro-5-(2,6-difluorophenyl)-N-(2-fluoroethyl)-6H-pyrazolo[1,5-a][1,3,5]benzotriazepine-9-carboxamide]"
7,< 50 nM,"C[C@H]1COCCN1c1ccc2c(c1)-n1ncc(Cl)c1N=C(c1c(F)cccc1F)N2 [(3S)-4-[3-chloro-5-(2,6-difluorophenyl)-6H-pyrazolo[1,5-a][1,3,5]benzotriazepin-9-yl]-3-methyl-morpholine]"
8,< 50 nM,"Cc1cnn2c1N=C(c1c(F)cccc1F)Nc1cnc(N3CCOCC3)cc1-2 [4-(5-(2,6-difluorophenyl)-3-methyl-6H-pyrazolo[1,5-a]pyrido[3,4-f][1,3,5]triazepin-9-yl)morpholine]"
9,< 50 nM,"O=C(NC1CCCC1)c1ccc2c(c1)-n1ncc(Cl)c1N=C(c1c(F)cccc1F)N2 [3-chloro-N-cyclopentyl-5-(2,6-difluorophenyl)-6H-pyrazolo[1,5-a][1,3,5]benzotriazepine-9-carboxamide]"
10,< 50 nM,"CN1CCN(c2ccc3c(c2)-n2ncc(Cl)c2N=C(c2c(F)cccc2F)N3)CC1 [3-chloro-5-(2,6-difluorophenyl)-9-(4-methylpiperazin-1-yl)-6H-pyrazolo[1,5-a][1,3,5]benzotriazepine]"
11,< 50 nM,O=S1(=O)CCN(c2ccc3c(c2)-n2ncc(Cl)c2N=C(c2c(F)cccc2F)N3)CC1
12,< 50 nM,"Fc1cccc(Cl)c1C1=Nc2c(Cl)cnn2-c2cc(N3CCOCC3)ncc2N1 [4-(3-chloro-5-(2-chloro-6-fluorophenyl)-6H-pyrazolo[1,5-a]pyrido[3,4-f][1,3,5]triazepin-9-yl)morpholine]"
13,50 to 200 nM,"CN(C)C(=O)c1ccc2c(c1)-n1ncc(Cl)c1N=C(c1c(F)cccc1F)N2 [3-chloro-5-(2,6-difluorophenyl)-N,N-dimethyl-6H-pyrazolo[1,5-a][1,3,5]benzotriazepine-9-carboxamide]"
14,< 50 nM,"Fc1cccc(Cl)c1C1=Nc2c(Cl)cnn2-c2cc(N3CCOCC3)ccc2N1 [4-[3-chloro-5-(2-chloro-6-fluoro-phenyl)-6H-pyrazolo[1,5-a][1,3,5]benzotriazepin-9-yl]morpholine]"
15,< 50 nM,"NC(=O)c1ccc2c(c1)-n1ncc(Cl)c1N=C(c1c(F)cccc1F)N2 [3-chloro-5-(2,6-difluorophenyl)-6H-pyrazolo[1,5-a][1,3,5]benzotriazepine-9-carboxamide]"
16,< 50 nM,"Fc1cccc(F)c1C1=Nc2c(Cl)cnn2-c2cc(N3CC4CCC(C3)O4)ncc2N1 [3-(3-Chloro-5-(2,6-difluorophenyl)-6H-pyrazolo[1,5-a]pyrido[3,4-f][1,3,5]triazepin-9-yl)-8-oxa-3-azabicyclo[3.2.1]octane]"
17,< 50 nM,"O=C(NC1COC1)c1ccc2c(c1)-n1ncc(Cl)c1N=C(c1c(F)cccc1F)N2 [3-chloro-5-(2,6-difluorophenyl)-N-(oxetan-3-yl)-6H-benzo[f]pyrazolo[1,5-a][1,3,5]triazepine-9-carboxamide]"
18,50 to 200 nM,"CC(C)(O)c1ccc2c(c1)-n1ncc(Cl)c1N=C(c1c(F)cccc1F)N2 [Methyl 2-[3-chloro-5-(2,6-difluorophenyl)-6H-pyrazolo[1,5-a][1,3,5]benzotriazepin-9-yl]propan-2-ol]"
19,< 50 nM,"N#Cc1cnn2c1N=C(c1c(F)cccc1F)Nc1cnc(N3CCOCC3)cc1-2 [5-(2,6-difluorophenyl)-9-morpholino-6H-pyrazolo[1,5-a]pyrido[3,4-f][1,3,5]triazepine-3-carbonitrile]"
20,> 200 nM,"O=C(O)c1ccc2c(c1)-n1ncc(Cl)c1N=C(c1c(F)cccc1F)N2 [Methyl 3-chloro-5-(2,6-difluorophenyl)-6H-pyrazolo[1,5-a][1,3,5]benzotriazepine-9-carboxylic acid]"
21,< 50 nM,"C[C@H]1CN(c2ccc3c(c2)-n2ncc(Cl)c2N=C(c2c(F)cccc2F)N3)C[C@H](C)O1 [(2S,6S)-4-(3-chloro-5-(2,6-difluorophenyl)-6H-benzo[f]pyrazolo[1,5-a][1,3,5]triazepin-9-yl)-2,6-dimethylmorpholine]"
